US20110070190A1 (Roche Palo Alto LLC, priority 2009, published 2011)

Experiments:
[1] = target: T1, HCV polymerase (NS5B570n-Con1) (Hepatitis C virus genotype 1b, UniProt Q9WMX2); assay: HCV NS5B RNA polymerase activity (incorporation of radiolabeled nucleotide into acid insoluble RNA); assay type: biochemical, HCV Con1 strain
T1 construct: a 21 amino acid C-terminal deletion of full-length HCV polymerase; made in house; host or cells: E. coli BL21(DE3) pLysS, plasmid pET17b
Procedure: The enzymatic activity of HCV polymerase (NS5B570n-Con1) was measured as the incorporation of radiolabeled nucleotide monophosphates into acid insoluble RNA products. Unincorporated radiolabeled substrate was removed by filtration and scintillant was added to the washed and dried filter plate containing radiolabeled RNA product. The amount of RNA product generated by NS5B570n-Con1 at the end of the reaction was directly proportional to the amount of light emitted by the scintillant.
The HCV polymerase used in the enzymatic activity assay is a 21 amino acid C-terminal deletion of full-length HCV polymerase derived from HCV Con1 strain, genotype 1b (GenBank accession number AJ242654) (NS5B570n-Con1). The NS5B570n-Con1 was sub-cloned downstream to the T7 promoter of the plasmid expression construct pET17b and transformed into E. coli strain BL21(DE3) pLysS for protein expression. A single colony was used to start an innoculum for a 10 L culture in LB media supplemented with 100 μg/mL ampicillin at 37° C. Protein expression was induced by the addition of 0.25 mM isopropyl-β-D-thiogalactopyranoside (IPTG) when the optical density of the culture at […] was 0.8. Induction of protein expression was carried out at 30° C. for 16 h after which the cells were harvested by centrifugation. NS5B570n-Con1 was purified to homogeneity using a three-column purification protocol including subsequent column chromatography on Ni-NTA, SP-Sepharose HP and Superdex 75 resins.
Enzymatic reactions in the presence of cIRES RNA template (see paragraph [00213]) contained 20 nM cIRES RNA, 20 nM NS5B570n-Con1 enzyme, 0.5 μCi of tritiated UTP (Perkin Elmer catalog no. TRK-412; specific activity: 30 to 60 Ci/mmol;), 1 μM each ATP, CTP, and GTP, 40 mM Tris-HCl pH 8.0, 40 mM NaCl, 4 mM DTT (dithiothreitol), 4 mM MgCl2, 5 μl of compound serial diluted in DMSO, and nuclease-free water to a final reaction volume of 50 μl. Enzymatic reactions in the presence of poly A RNA template (see paragraph [00213]) contained 20 nM Poly A:oligo(rU)16 premixed (see section 0004), 20 nM NS5B570n-Con1 enzyme, 1 μCi of tritiated UTP (Perkin Elmer catalog no. TRK-412; specific activity: 30 to 60 Ci/mmol), 40 mM Tris-HCl pH 8.0, 40 mM NaCl, 4 mM DTT (dithiothreitol), 4 mM MgCl2, 5 μl of compound serial diluted in DMSO, and nuclease-free water to a final reaction volume of 50 μl. Reaction mixtures were assembled in 96-well filter plates (cat #MADVN0B, Millipore Co.) and incubated for 2 h at 30° C. Reactions were stopped by addition of 10% final (v/v) trichloroacetic acid and incubated for 40 min at 4° C. Reactions were filtered, washed with 8 reaction volumes of 10% (v/v) trichloroacetic acetic acid, 4 reaction volumes of 70% (v/v) ethanol, air dried, and 25 μl of scintillant (Microscint 20, Perkin-Elmer) was added to each reaction well.
Two RNA templates were used to assay compounds described herein. The cIRES RNA template was 377 nucleotide long and consisted of a partial complementary sequence (36 nucleotides) of the core protein, followed by 341 nucleotide of the complementary sequence of the internal ribosome entry site. The poly A RNA template (GE Amersham catalog number 27-4110) was a homopolymeric RNA pre-annealed to a oligo(rU)16 primer at a molar ratio of 3-to-1 (primer-template).
The amount of light emitted from the scintillant was converted to counts per minute (CPM) on a Topcount® plate reader (Perkin-Elmer, Energy Range: Low, Efficiency Mode: Normal, Count Time: 1 min, Background Subtract: none, Cross talk reduction: Off).
Data was analyzed in Excel® (Microsoft®) and ActivityBase® (Idbs®). The reaction in the absence of enzyme was used to determine the background signal, which was subtracted from the enzymatic reactions. Positive control reactions were performed in the absence of compound, from which the background corrected activity was set as 100% polymerase activity. All data was expressed as a percentage of the positive control. […]

HCV = details: cited from earlier work

Structure (SMILES) | IC50 [1] | melting point | effect on serum levels of HCV-RNA (HCV; monotherapy / sole treatment) | patients with serum amino transferase levels reduced to normal (HCV; monotherapy)
O=c1ncn(Cc2ccc(Cl)cc2)c2cc(-c3ccc(OCc4ccccc4)c(Cl)c3)sc12 [Compound I-44, 6-(4-Benzyloxy-3-chloro-phenyl)-1-(4-chloro-benzyl)-1H-thieno[3,2-d]pyrimidin-4-one] | 30 nM | 222 to 224 °C | – | –
O=c1ncn(Cc2ccc(Cl)cc2)c2cc(-c3ccc(OCc4ccncc4)cc3)sc12 [Compound I-58] | 49 nM | 257 to 259 °C | – | –
O=c1ncn(Cc2ccc(Cl)cc2)c2cc(-c3ccc(OCc4ccccn4)cc3)sc12 [Compound I-28, 1-(4-Chloro-benzyl)-6-[4-(pyridin-2-ylmethoxy)-phenyl]-1H-thieno[3,2-d]pyrimidin-4-one] | 51 nM | 233 to 235 °C | – | –
NC(=O)c1ncn([C@@H]2O[C@H](CO)[C@@H](O)[C@H]2O)n1 [ribavirin, 1-((2R,3R,4S,5R)-3,4-Dihydroxy-5-hydroxymethyl-tetrahydro-furan-2-yl)-1H-[1,2,4]triazole-3-carboxylic acid amide] | – | – | does not lower serum levels of HCV-RNA | 40%
N#Cc1ccc(-c2cc3c(s2)c(=O)ncn3Cc2ccc(Cl)cc2)cc1 [Compound I-52, 4-[1-(4-Chloro-benzyl)-4-oxo-1,4-dihydro-thieno[3,2-d]pyrimidin-6-yl]-benzonitrile] | 1600 nM | > 300 °C | – | –
O=c1ncn(Cc2ccc(Cl)cc2)c2cc(-c3ccc(OCc4cnccn4)cc3)sc12 [Compound I-16, 1-(4-chloro-benzyl)-6-[4-(pyrazin-2-ylmethoxy)-phenyl]-1H-thieno[3,2-d]pyrimidin-4-one] | 71 nM | 236.9 to 239.6 °C | – | –
O=c1ncn(Cc2ccc(Cl)cc2)c2cc(-c3ccc(N4CCCC4)cc3)sc12 [Compound I-56, 1-(4-Chloro-benzyl)-6-(4-pyrrolidin-1-yl-phenyl)-1H-thieno[3,2-d]pyrimidin-4-one] | 1610 nM | – | – | –
Cc1ccc(Cn2cnc(=O)c3sc(-c4ccc(-c5cc6ncccn6n5)cc4)cc32)cc1 [Compound I-57, 1-(4-Methyl-benzyl)-6-(4-pyrazolo[1,5-a]pyrimidin-2-yl-phenyl)-1H-thieno[3,2-d]pyrimidin-4-one] | 108 nM | – | – | –
O=c1ncn(Cc2ccc(Cl)cc2)c2cc(-c3ccc(SCc4cccnc4)cc3)sc12 [Compound I-51, 1-(4-Chloro-benzyl)-6-[4-(pyridin-3-ylmethylsulfanyl)-phenyl]-1H-thieno[3,2-d]pyrimidin-4-one] | 313 nM | – | – | –
CC(CCO)C(=O)Nc1ccc(-c2cc3c(s2)c(=O)ncn3Cc2ccc(Cl)cc2)cc1Cl (stereo not drawn) [Compound I-35] | 517 nM | – | – | –
O=C(Nc1ccc(-c2cc3c(s2)c(=O)ncn3Cc2ccc(Cl)cc2)cc1)c1ccno1 [Compound I-32, Isoxazole-5-carboxylic acid {4-[1-(4-chloro-benzyl)-4-oxo-1,4-dihydro-thieno[3,2-d]pyrimidin-6-yl]-phenyl}-amide] | 308 nM | – | – | –
Nc1cc(C(=O)Nc2ccc(-c3cc4c(s3)c(=O)ncn4Cc3ccc(Cl)cc3)cc2)ccn1 [Compound I-9, 2-Amino-N-{4-[1-(4-chloro-benzyl)-4-oxo-1,4-dihydro-thieno[3,2-d]pyrimidin-6-yl]-phenyl}-isonicotinamide] | 29 nM | – | – | –
O=c1ncn(Cc2ccc(Cl)cc2)c2cc(-c3ccc(OCc4ccc(F)cc4)cc3)sc12 [Compound I-5, 1-(4-chloro-benzyl)-6-[4-(4-fluoro-benzyloxy)-phenyl]-1H-thieno[3,2-d]pyrimidin-4-one] | 13 nM | – | – | –
Cc1ccc(Cn2cnc(=O)c3sc(-c4ccc(Cl)cc4)cc32)cc1 [Compound I-22] | 131 nM | 244.1 to 247.5 °C | – | –
O=c1ncn(Cc2ccc(Cl)cc2)c2cc(-c3ccc(OCc4cccnc4)cc3)sc12 [Compound I-50, 1-(4-Chloro-benzyl)-6-[4-(pyridin-3-ylmethoxy)-phenyl]-1H-thieno[3,2-d]pyrimidin-4-one] | 103 nM | 255 to 257 °C | – | –
Cc1ccc(Cn2cnc(=O)c3sc(-c4ccc(C(=O)O)cc4)cc32)cc1 [Compound I-36] | 535 nM | – | – | –
O=c1ncn(Cc2ccc(Cl)cc2)c2cc(-c3ccc(SCc4ccccn4)cc3)sc12 [Compound I-48, 1-(4-Chloro-benzyl)-6-[4-(pyridin-2-ylmethylsulfanyl)-phenyl]-1H-thieno[3,2-d]pyrimidin-4-one] | 163 nM | – | – | –
O=c1ncn(Cc2ccc(Cl)cc2)c2cc(-c3ccc(OCc4ccccn4)c(Cl)c3)sc12 [Compound I-6, 1-(4-chloro-benzyl)-6-[3-chloro-4-(pyridin-2-ylmethoxy)-phenyl]-1H-thieno[3,2-d]pyrimidin-4-one] | 18 nM | 272 to 274 °C | – | –
COc1cccc(C(=O)Nc2ccc(-c3cc4c(s3)c(=O)ncn4Cc3ccc(Cl)cc3)cc2Cl)c1 [Compound I-26] | 162 nM | – | – | –
Cc1ccc(Cn2cnc(=O)c3sc(-c4ccc(C(C)(C)C)cc4)cc32)cc1 [Compound I-29] | 223 nM | 260.5 to 261.5 °C | – | –
Cc1ccc(Cn2cnc(=O)c3sc(-c4ccccc4)cc32)c(F)c1 [Compound I-21] | 126 nM | 225.1 to 225.8 °C | – | –
O=C(Nc1ccc(-c2cc3c(s2)c(=O)ncn3Cc2ccc(Cl)cc2)cc1)c1cnccn1 [Compound I-12, Pyrazine-2-carboxylic acid {4-[1-(4-chloro-benzyl)-4-oxo-1,4-dihydro-thieno[3,2-d]pyrimidin-6-yl]-phenyl}-amide] | 32 nM | – | – | –
Cc1cc(N)n2nc(-c3ccc(-c4cc5c(s4)c(=O)ncn5Cc4ccc(Cl)cc4)cn3)cc2n1 [Compound I-42, 6-[6-(7-Amino-5-methyl-pyrazolo[1,5-a]pyrimidin-2-yl)-pyridin-3-yl]-1-(4-chloro-benzyl)-1H-thieno[3,2-d]pyrimidin-4-one] | 19 nM | – | – | –
O=C(Nc1ccc(-c2cc3c(s2)c(=O)ncn3Cc2ccc(Cl)cc2)nc1)c1ccccn1 [Compound I-40, Pyridine-2-carboxylic acid {6-[1-(4-chloro-benzyl)-4-oxo-1,4-dihydro-thieno[3,2-d]pyrimidin-6-yl]-pyridin-3-yl}-amide] | 131 nM | – | – | –
Cc1cc(N)nc(COc2ccc(-c3cc4c(s3)c(=O)ncn4Cc3ccc(Cl)cc3)cc2)n1 [Compound I-45, 6-[4-(4-Amino-6-methyl-pyrimidin-2-ylmethoxy)-phenyl]-1-(4-chloro-benzyl)-1H-thieno[3,2-d]pyrimidin-4-one] | 372 nM | 272 to 274 °C | – | –
Cc1ccc(Cn2cnc(=O)c3sc(-c4ccc(-c5cc6ncccc6o5)cc4)cc32)cc1 [Compound I-19, 6-(4-Furo[3,2-b]pyridin-2-yl-phenyl)-1-(4-methyl-benzyl)-1H-thieno[3,2-d]pyrimidin-4-one] | 82 nM | – | – | –
Cc1ncoc1C(=O)Nc1ccc(-c2cc3c(s2)c(=O)ncn3Cc2ccc(Cl)cc2)cc1 [Compound I-18, 4-Methyl-oxazole-5-carboxylic acid {4-[1-(4-chloro-benzyl)-4-oxo-1,4-dihydro-thieno[3,2-d]pyrimidin-6-yl]-phenyl}-amide] | 77 nM | – | – | –
